Source: patent US20230117034A1, “PYRAZOLOTRIAZINES” (Bayer Aktiengesellschaft, priority 2019, published 2023)

Legend:
CDK12/CycK = CDK12/CycK (Homo sapiens, UniProt Q9NYV4); assay: CDK12/CycK high ATP kinase assay (TR-FRET, 2 mM ATP); assay type: biochemical; details: 2 mM ATP (high ATP); median; read-out: CDK12/CyclinK, 2 mM ATP (high ATP), IC50-[mol/l] (median)
Experimental: In the context of the present invention, the term “IC50 CDK12 hATP” refers to the IC50 values obtained according to the assay described in this section (2.2) herein below, i.e. the IC50 values for the inhibition of CDK12 at high (2 mM) ATP.
CDK12/CycK-inhibitory activity of compounds of the present invention at 2 millimol/L adenosine-tri-phosphate (ATP) was quantified employing the TR-FRET (TR-FRET=Time Resolved Fluorescence Energy Transfer) based CDK12/CycK activity inhibition assay as described in the following paragraphs.
A complex of human recombinant CDK12 and human recombinant CycK (both N-terminally His-tagged, expression and purification as described above) was used as enzyme. As substrate for the kinase reaction biotinylated peptide biotin-Ahx-KFELLPTPPLSPSRRSGL (C-terminus in amid form) was used which can be purchased e.g. form the company Biosyntan (Berlin-Buch, Germany).
For the assay 50 nanoL of a 100 fold concentrated solution of the test compound in DMSO was pipetted into either a black low volume 384 well microtiter plate or a black 1536 well microtiter plate (both Greiner Bio-One, Frickenhausen, Germany), 2 microL of a solution of CDK12/CycK in aqueous assay buffer [25 millimol/L HEPES pH 7.5, 20 millimol/L MgCl2, 5 millimol/L β-glycerophosphate, 2 millimol/L EGTA, 1.0 millimol/L dithiothreitol, 0.01% (v/v) Nonidet-P40 (Sigma), 0.01% (w/v) bovine serum albumin] were added and the mixture was incubated for 15 min at 22° C. to allow pre-binding of the test compounds to the enzyme before the start of the kinase reaction. Then the kinase reaction was started by the addition of 3 microL of a solution ATP (3.33 millimol/L=>final conc. in the 5 microL assay volume is 2 millimol/L) and substrate (1.67 micromol/L=>final conc. in the 5 microL assay volume is 1 micromol/L) in assay buffer and the resulting mixture was incubated for a reaction time of 60 min at 22° C. The concentration of CDK12/CycK was adjusted depending of the activity of the enzyme lot and was chosen appropriate to have the assay in the linear range, typical concentrations were about 0.75 nanomol/L. The reaction was stopped by the addition of 3 microL of a solution of TR-FRET detection reagents (125 nanomol/L streptavidine-XL665 [Cisbio Bioassays, Codolet, France] and 0.67 nanomol/L anti-Phospho-c-Myc (Ser 62) (E1J4K)-antibody from Cell Signalling [#13748] and 2 nanomol/L LANCE EU-W1024 labeled anti-rabbit IgG antibody [Perkin-Elmer, product no. 0083]) in an aqueous EDTA-solution (133 millimol/L EDTA, 0.27% (w/v) bovine serum albumin in 66.7 millimol/L HEPES pH 7.5).
The resulting mixture was incubated 1 h at 22° C. to allow the formation of complex between the phosphorylated biotinylated peptide and the detection reagents. Subsequently the amount of phosphorylated substrate was evaluated by measurement of the resonance energy transfer from the Eu-chelate to the streptavidine-XL. Therefore, the fluorescence emissions at 620 nm and 665 nm after excitation at 350 nm was measured in a TR-FRET reader, e.g. a Pherastar FS (BMG Labtechnologies, Offenburg, Germany) or a Viewlux (Perkin-Elmer). The ratio of the emissions at 665 nm and at […] was taken as the measure for the amount of phosphorylated substrate. The data were normalised (enzyme reaction without inhibitor=0% inhibition, all other assay components but no enzyme=100% inhibition).

[1] = tested on: CAL-120, human breast adenocarcinoma cells; assay: Proliferation assay CAL-120 (crystal violet, 4 days); assay type: cell-based; details: Homo sapiens, CAL-120, 96 h, CAL-120 cells, median, read-out: Prolif-CAL-120, IC50-[mol/l] (median)
Experimental: Human tumour cells were originally obtained from the American Type Culture Collection (ATCC), or from the Deutsche Sammlung von Mikroorganismen und Zellkulturen (DSMZ, German Collection of Microorganisms and Cell Cultures). Cultivated tumour cells (CAL-120, human breast adenocarcinoma cells, DSMZ ACC-459; MDA-MB-231, human breast cancer cells, ATCC HTB-26) were plated at a density of 4,000 cells/well in a 96-well multititer plate in 200 microL of their respective growth medium supplemented 10% fetal calf serum. After 24 hours, the cells of one plate (zero-point plate) were stained with crystal violet (see below), while the medium of the other plates was supplemented with the test substances in various concentrations (0 micromol/L, as well as in the range of 0.01-10 micromol/L; the final concentration of the solvent dimethyl sulfoxide was adjusted to 0.1%) using a Tecan HP D300 Digital Dispenser. The cells were incubated for 4 days in the presence of test substances. Cell proliferation was determined by staining the cells with crystal violet: the cells were fixed by adding 20 microL/measuring point of an 11% glutaric aldehyde solution for 15 minutes at room temperature. After three washing cycles of the fixed cells with water, the plates were dried at room temperature. The cells were stained by adding 100 microL/measuring point of a 0.1% crystal violet solution (pH 3.0). After three washing cycles of the stained cells with water, the plates were dried at room temperature. The dye was dissolved by adding 100 microL/measuring point of a 10% acetic acid solution. The extinction was determined by photometry at a wavelength of 595 nm. The change of cell number, in percent, was calculated by normalization of the measured values to the extinction values of the zero-point plate (=0%) and the extinction of the untreated (0 μM) cells (=100%). The IC50 values (inhibitory concentration at 50% of maximal effect) were determined by means of a 4 parameter fit.

Chain of CDK12/CycK (Q9NYV4 with tags, fused parts or gaps): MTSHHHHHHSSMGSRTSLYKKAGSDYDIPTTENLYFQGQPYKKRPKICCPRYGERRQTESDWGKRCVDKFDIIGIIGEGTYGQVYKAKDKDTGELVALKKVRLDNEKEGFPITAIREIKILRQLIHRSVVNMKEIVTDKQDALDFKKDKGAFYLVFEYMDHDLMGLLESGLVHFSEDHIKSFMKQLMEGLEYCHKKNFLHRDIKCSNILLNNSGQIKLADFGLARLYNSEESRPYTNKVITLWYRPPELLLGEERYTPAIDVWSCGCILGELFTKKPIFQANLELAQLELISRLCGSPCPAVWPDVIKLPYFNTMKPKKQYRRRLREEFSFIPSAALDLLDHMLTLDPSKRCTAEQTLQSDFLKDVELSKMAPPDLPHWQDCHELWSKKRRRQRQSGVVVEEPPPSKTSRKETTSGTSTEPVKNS
Chain of CDK12/CycK (O75909 1-300 partner limits assumed): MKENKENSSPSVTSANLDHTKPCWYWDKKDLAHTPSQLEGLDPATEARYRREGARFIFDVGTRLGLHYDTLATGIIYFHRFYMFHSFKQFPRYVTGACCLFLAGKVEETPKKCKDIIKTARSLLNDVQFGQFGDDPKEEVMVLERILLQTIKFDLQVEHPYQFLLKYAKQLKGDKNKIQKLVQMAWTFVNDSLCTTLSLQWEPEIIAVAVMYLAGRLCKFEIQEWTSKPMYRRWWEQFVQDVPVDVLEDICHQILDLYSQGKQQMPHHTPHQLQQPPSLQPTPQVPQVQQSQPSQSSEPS

SMILES	IC50 (CDK12/CycK) [µM]	IC50 [1] [µM]
CC(=O)NCCCc1cccc2[nH]c(CNc3nc(N4CCOCC4)nc4c(Br)cnn34)nc12.O=CO [Example 115, formic acid-N-{3-[2-({[8-bromo-2-(morpholin-4-yl)pyrazolo[1,5-a][1,3,5]triazin-4-yl]amino}methyl)-1H-benzimidazol-4-yl]propyl}acetamide (1/1)]	11.6	
C[C@@H]1CCCCN1c1nc(NCc2nc3ccccc3[nH]2)n2ncc(Br)c2n1 [Example 140, N-[(1H-benzimidazol-2-yl)methyl]-8-bromo-2-[(2R)-2-methylpiperidin-1-yl]pyrazolo[1,5-a][1,3,5]triazin-4-amine]	8.15	0.255
Brc1cnn2c(NCc3nc4ccccc4[nH]3)nc(N3CCC3)nc12 [Example 143, 2-(azetidin-1-yl)-N-[(1H-benzimidazol-2-yl)methyl]-8-bromopyrazolo[1,5-a][1,3,5]triazin-4-amine]	> 20	0.306
c1ccc(-c2cnn3c(NCc4nc5ccccc5[nH]4)nc(N4CCOCC4)nc23)cc1 [Example 104, N-[(1H-benzimidazol-2-yl)methyl]-2-(morpholin-4-yl)-8-phenylpyrazolo[1,5-a][1,3,5]triazin-4-amine]	> 20	0.127
Clc1cccc(-c2cnn3c(NCc4nc5ccccc5[nH]4)nc(N4CCOCC4)nc23)c1 [Example 107, N-[(1H-benzimidazol-2-yl)methyl]-8-(3-chlorophenyl)-2-(morpholin-4-yl)pyrazolo[1,5-a][1,3,5]triazin-4-amine]	> 20	0.188
NCCCc1cccc2[nH]c(CNc3nc(N4CCOCC4)nc4c(Br)cnn34)nc12.O=CO [Example 114, formic acid-N-{[4-(3-aminopropyl)-1H-benzimidazol-2-yl]methyl}-8-bromo-2-(morpholin-4-yl)pyrazolo[1,5-a][1,3,5]triazin-4-amine (1/1)]	8.13	
N=S1(=O)CCN(c2nc(NCc3nc4ccccc4[nH]3)n3ncc(Br)c3n2)CC1 [Example 145, 4-(4-{[(1H-benzimidazol-2-yl)methyl]amino}-8-bromopyrazolo[1,5-a][1,3,5]triazin-2-yl)-1-imino-1lambda^6-thiomorpholin-1-one]	12.6	0.223
CN1CCN(c2nc(NCc3nnc(-c4ccccc4)[nH]3)n3ncc(Br)c3n2)CC1=O [Example 121, 4-(8-bromo-4-{[(5-phenyl-4H-1,2,4-triazol-3-yl)methyl]amino}pyrazolo[1,5-a][1,3,5]triazin-2-yl)-1-methylpiperazin-2-one]	7.47	0.404
CN1CCN(c2nc(NCc3nc4ccccc4[nH]3)n3ncc(Br)c3n2)CC1=O [Example 131, 4-(4-{[(1H-benzimidazol-2-yl)methyl]amino}-8-bromopyrazolo[1,5-a][1,3,5]triazin-2-yl)-1-methylpiperazin-2-one]	11.1	0.595
CC(C)c1cnn2c(NCc3nc4ccccc4[nH]3)nc(N3CCOC[C@H]3C)nc12 [Example 7, N-[(1H-benzimidazol-2-yl)methyl]-2-[(3R)-3-methylmorpholin-4-yl]-8-(propan-2-yl)pyrazolo[1,5-a][1,3,5]triazin-4-amine]	10.2	
CC(C)c1cnn2c(NCc3nc4ccccc4[nH]3)nc(N3CC4(COC4)C3)nc12 [Example 9, N-[(1H-benzimidazol-2-yl)methyl]-2-(2-oxa-6-azaspiro[3.3]heptan-6-yl)-8-(propan-2-yl)pyrazolo[1,5-a][1,3,5]triazin-4-amine]	> 20	
Brc1cnn2c(NCc3nc4ccccc4[nH]3)nc(N3CCN(C4CC4)CC3)nc12 [Example 138, N-[(1H-benzimidazol-2-yl)methyl]-8-bromo-2-(4-cyclopropylpiperazin-1-yl)pyrazolo[1,5-a][1,3,5]triazin-4-amine]	> 20	0.451
FC(F)(F)CN1CCN(c2nc(NCc3nc4ccccc4[nH]3)n3ncc(Br)c3n2)CC1 [Example 139, N-[(1H-benzimidazol-2-yl)methyl]-8-bromo-2-[4-(2,2,2-trifluoroethyl)piperazin-1-yl]pyrazolo[1,5-a][1,3,5]triazin-4-amine]	15.3	0.446

These reach a lower IC50 (CDK12/CycK). Values come first.

IC50 (CDK12/CycK) [µM]	IC50 [1] [µM]	SMILES
6.68		NCCc1cccc2[nH]c(CNc3nc(N4CCOCC4)nc4c(Br)cnn34)nc12 [Example 112, N-{[7-(2-aminoethyl)-1H-benzimidazol-2-yl]methyl}-8-bromo-2-(morpholin-4-yl)pyrazolo[1,5-a][1,3,5]triazin-4-amine]
6.22	0.164	Brc1cnn2c(NCc3nc4ccccc4[nH]3)nc(N3CCN4CCC[C@@H]4C3)nc12 [Example 149, N-[(1H-benzimidazol-2-yl)methyl]-8-bromo-2-[(8aR)-hexahydropyrrolo[1,2-a]pyrazin-2 (1 H)-yl]pyrazolo[1,5-a][1,3,5]triazin-4-amine]
6.09	0.0201	O=S1(=O)CCN(c2nc(NCc3nc4ccccc4[nH]3)n3ncc(Br)c3n2)CC1 [Example 166, 4-(4-{[(1H-benzimidazol-2-yl)methyl]amino}-8-bromopyrazolo[1,5-a][1,3,5]triazin-2-yl)-1 lambda^6-thiomorpholine-1,1-dione]
4.97	0.31	OCC1CCN1c1nc(NCc2nc3ccccc3[nH]2)n2ncc(Br)c2n1 (stereo not shown) [Example 147, [1-[4-(1H-benzimidazol-2-ylmethylamino)-8-bromo-pyrazolo[1,5-a][1,3,5]triazin-2-yl]azetidin-2-yl]methanol]
3.74	0.0753	CN1CCN(c2nc(NCc3nc4ccccc4[nH]3)n3ncc(Br)c3n2)C(CO)C1 (stereo not shown) [Example 155, [1-[4-(1H-benzimidazol-2-ylmethylamino)-8-bromo-pyrazolo[1,5-a][1,3,5]triazin-2-yl]-4-methyl-piperazin-2-yl]methanol]
3.72	0.11	[O-][S+]1CCN(c2nc(NCc3nc4ccccc4[nH]3)n3ncc(Br)c3n2)CC1 [Example 144, 4-(4-{[(1H-benzimidazol-2-yl)methyl]amino}-8-bromopyrazolo[1,5-a][1,3,5]triazin-2-yl)-1lambda^4-thiomorpholin-1-one]
1.71		NCCc1ccc2[nH]c(CNc3nc(N4CCOCC4)nc4c(Br)cnn34)nc2c1.O=CO [Example 113, formic acid-N-{[5-(2-aminoethyl)-1H-benzimidazol-2-yl]methyl}-8-bromo-2-(morpholin-4-yl)pyrazolo[1,5-a][1,3,5]triazin-4-amine (1/1)]
